Test results reported in patent US20210123061A1, “METHODS AND COMPOSITIONS FOR TREATING INFLAMMATORY DISEASE OR DISORDER” (THE BRIGHAM AND WOMEN'S HOSPITAL, INC., priority 2018, published 2021).

T1: Signal transducer and activator of transcription 1 (STAT1)
T1 chain: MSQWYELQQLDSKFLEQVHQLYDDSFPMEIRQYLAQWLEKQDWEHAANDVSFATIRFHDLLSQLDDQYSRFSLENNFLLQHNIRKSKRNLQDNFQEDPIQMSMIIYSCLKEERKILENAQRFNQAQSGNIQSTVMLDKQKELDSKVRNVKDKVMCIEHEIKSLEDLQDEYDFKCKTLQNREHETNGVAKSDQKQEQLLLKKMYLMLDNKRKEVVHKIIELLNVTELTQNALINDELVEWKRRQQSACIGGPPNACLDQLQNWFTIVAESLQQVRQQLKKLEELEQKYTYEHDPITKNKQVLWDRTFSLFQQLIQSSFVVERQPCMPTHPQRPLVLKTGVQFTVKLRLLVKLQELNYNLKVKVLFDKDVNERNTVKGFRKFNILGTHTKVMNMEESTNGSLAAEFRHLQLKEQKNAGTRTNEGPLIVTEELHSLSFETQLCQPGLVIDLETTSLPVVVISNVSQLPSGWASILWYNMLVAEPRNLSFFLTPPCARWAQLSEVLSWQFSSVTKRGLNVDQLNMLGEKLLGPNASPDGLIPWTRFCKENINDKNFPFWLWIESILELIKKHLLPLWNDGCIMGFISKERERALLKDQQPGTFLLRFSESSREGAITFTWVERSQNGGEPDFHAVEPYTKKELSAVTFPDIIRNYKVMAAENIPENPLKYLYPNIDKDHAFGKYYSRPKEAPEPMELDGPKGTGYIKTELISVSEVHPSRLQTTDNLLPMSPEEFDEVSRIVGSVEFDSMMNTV

B1: Ribosomal S6 Kinase-1 (RSK1), recombinant (protein)
chain: MEQDPKPPRLRLWALIPWLPRKQRPRISQTSLPVPGPGSGPQRDSDEGVLKEISITHHVKAGSEKADPSHFELLKVLGQGSFGKVFLVRKVTRPDSGHLYAMKVLKKATLKVRDRVRTKMERDILADVNHPFVVKLHYAFQTEGKLYLILDFLRGGDLFTRLSKEVMFTEEDVKFYLAELALGLDHLHSLGIIYRDLKPENILLDEEGHIKLTDFGLSKEAIDHEKKAYSFCGTVEYMAPEVVNRQGHSHSADWWSYGVLMFEMLTGSLPFQGKDRKETMTLILKAKLGMPQFLSTEAQSLLRALFKRNPANRLGSGPDGAEEIKRHVFYSTIDWNKLYRREIKPPFKPAVAQPDDTFYFDTEFTSRTPKDSPGIPPSAGAHQLFRGFSFVATGLMEDDGKPRAPQAPLHSVVQQLHGKNLVFSDGYVVKETIGVGSYSECKRCVHKATNMEYAVKVIDKSKRDPSEEIEILLRYGQHPNIITLKDVYDDGKHVYLVTELMRGGELLDKILRQKFFSEREASFVLHTIGKTVEYLHSQGVVHRDLKPSNILYVDESGNPECLRICDFGFAKQLRAENGLLMTPCYTANFVAPEVLKRQGYDEGCDIWSLGILLYTMLAGYTPFANGPSDTPEEILTRIGSGKFTLSGGNWNTVSETAKDLVSKMLHVDPHQRLTAKQVLQHPWVTQKDKLPQSQLSHQDLQLVKGAMAATYSALNSSKPTPQLKPIESSILAQRRVRKLPSTTL

Molecular target: T1, Signal transducer and activator of …
Settings: not given
In the case of B1, the “phosphorylation of STAT1 at Ser727 in vitro (kinase reaction, immunoblot)” value is reported as “RSK1 is capable of phosphorylating STAT1 at Ser727 in vitro”.

Test system: RSK1 (RPS6KA1) gene expression
Settings: FIG. 20; cited from earlier work
For `C=CCn1c(=O)c2cnc(Nc3ccc(N4CCN(C)CC4)cc3)nc2n1-c1cccc(C(C)(C)O)n1` [MK-1775], the “RSK1 expression effect under various conditions” value is given as “U937-specific effect”.

Same assay, conditions: Table 1; pert_type trt_cp = small molecule, trt_sh = shRNA; cited from earlier work
In the case of `CCNC(=O)c1noc(-c2cc(C(C)C)c(O)cc2O)c1-c1ccc(CN2CCOCC2)cc1` [NVP-AUY922], the “RSK1 (agents that alter RSK1 expression)” value is listed as −1.23.
For `C=C[C@](C)(O)CC/C=C(\C)C(=O)O[C@H]1[C@H](O)[C@@H](O)[C@H](O[C@@](C)(C=C)CC/C=C(\CO)C(=O)O[C@H]2C[C@]3(C(=O)O[C@@H]4O[C@H](CO)[C@@H](O)[C@H](O)[C@H]4O[C@@H]4O[C@@H](C)[C@H](O[C@@H]5O[C@@H](CO)[C@H](O)[C@H]5O)[C@@H](O[C@@H]5O[C@H](CO)[C@@H](O)[C@H](O)[C@H]5O)[C@H]4O)[C@H](O)C[C@]4(C)C(=CC[C@@H]5[C@@]6(C)CC[C@H](O[C@@H]7O[C@H](CO[C@@H]8O[C@H](C)[C@H](O)[C@H](O)[C@H]8O[C@@H]8OC[C@@H](O)[C@H](O)[C@H]8O)[C@@H](O)[C@H](O)[C@H]7NC(C)=O)C(C)(C)[C@@H]6CC[C@]54C)[C@@H]3CC2(C)C)O[C@@H]1C` [avicin-g], the “RSK1 (agents that alter RSK1 expression)” value is given as −1.17.
For `CCCC[C@@H](C)/C=C(C)/C=C(\C)C(=O)NC1=C[C@@](O)(/C=C/C=C/C=C/C(=O)NC2=C(O)CCC2=O)C2O[C@@H]2C1=O` (stereo partly drawn) [manumycin-a, N-[(1S,5S,6R)-5-hydroxy-5-[(1E,3E,5E)-7-[(2-hydroxy-5-oxo-1-cyclopenten-1-yl)amino]-7-oxo-1,3,5-heptatrien-1-yl]-2-oxo-7-oxabicyclo [4.1.0]hept-3-en-3-yl]-2E,4E,6R-trimethyl,2,4-decadienamide], the “RSK1 (agents that alter RSK1 expression)” value is given as −1.48.
In the case of `Oc1cccc(-c2nc(N3CCOCC3)c3oc4ncccc4c3n2)c1` [PI-103], the “RSK1 (agents that alter RSK1 expression)” value is listed as −0.54.
In the case of `c1ccc2c(-c3cnn4cc(-c5ccc(N6CCNCC6)cc5)cnc34)ccnc2c1` [LDN-193189], the “RSK1 (agents that alter RSK1 expression)” value is given as −1.38.
For `C[S+]([O-])CCCCN=C=S` (stereo not shown) [sulforaphane], the “RSK1 (agents that alter RSK1 expression)” value is given as −0.50.
For `CC(C)C[C@@H](C(=O)N[C@H](C(=O)OC1CCCC1)c1ccccc1)[C@H](O)C(=O)NO` [tosedostat, αS-[[(2R)-2-[(1S)-1-hydroxy-2-(hydroxyamino)-2-oxoethyl]-4-methyl-1-oxopentyl]amino]-benzeneacetic acid, cyclopentyl ester], the “RSK1 (agents that alter RSK1 expression)” value is listed as −0.96.
In the case of `CC(C(=O)Nc1cccc(/N=C/c2c(O)ccc3ccccc23)c1)c1ccccc1` (stereo not shown) [salermide], the “RSK1 (agents that alter RSK1 expression)” value is given as −0.98.
For `FC(F)c1nc2ccccc2n1-c1nc(N2CCOCC2)nc(N2CCOCC2)n1` [ZSTK-474], the “RSK1 (agents that alter RSK1 expression)” value is given as −0.73.
In the case of `C/C=C/C/C=C/CCC(=O)[C@H]1O[C@H]1C(N)=O` [cerulenin, (2R,3S)-3-[(4E,7E)-1-Oxo-4,7-nonadien-1-yl]-2-oxiranecarboxamide], the “RSK1 (agents that alter RSK1 expression)” value is given as −1.40.
In the case of `O=C1[C@H](Cc2ccc(O)cc2)N2C(=O)CCN(C(=O)NCc3ccccc3)[C@H]2CN1Cc1cccc2ccccc12` [BRD-K73261812], the “RSK1 (agents that alter RSK1 expression)” value is given as −0.97.
For `CN(C)C(=O)c1cccc(-c2cccc(-c3nc(C(=O)NC4CCCCC4)cc4c3[C@@H](CCO)N([S@+]([O-])C(C)(C)C)C4)c2)c1` [BRD-K08663380], the “RSK1 (agents that alter RSK1 expression)” value is listed as −0.65.
In the case of `CC1=NN(c2ccc(C(=O)O)cc2)C(=O)/C1=C/c1ccc(-c2cc(C)c(C)cc2[N+](=O)[O-])o1` [BRD-K68548958], the “RSK1 (agents that alter RSK1 expression)” value is listed as −0.99.

Same assay, conditions: Table 2; cited from earlier work
In the case of `CCCC[C@@H](C)/C=C(C)/C=C(\C)C(=O)NC1=C[C@@](O)(/C=C/C=C/C=C/C(=O)NC2=C(O)CCC2=O)C2O[C@@H]2C1=O` (stereo partly drawn) [manumycin-a, N-[(1S,5S,6R)-5-hydroxy-5-[(1E,3E,5E)-7-[(2-hydroxy-5-oxo-1-cyclopenten-1-yl)amino]-7-oxo-1,3,5-heptatrien-1-yl]-2-oxo-7-oxabicyclo [4.1.0]hept-3-en-3-yl]-2E,4E,6R-trimethyl,2,4-decadienamide], the “RPS6KA1 (small molecules that inhibit RSK1 expression)” value is listed as −1.48.
In the case of `C=CCNC1=C2C[C@@H](C)C[C@H](OC)[C@H](O)[C@@H](C)/C=C(\C)[C@H](OC(N)=O)[C@@H](OC)/C=C\C=C(/C)C(=O)NC(=CC1=O)C2=O` [tanespimycin, 17-N-allylamino-17-demethoxygeldanamycin], the “RPS6KA1 (small molecules that inhibit RSK1 expression)” value is given as −1.17.
For `CC(C)C[C@@H](C(=O)N[C@H](C(=O)OC1CCCC1)c1ccccc1)[C@H](O)C(=O)NO` [tosedostat, αS-[[(2R)-2-[(1S)-1-hydroxy-2-(hydroxyamino)-2-oxoethyl]-4-methyl-1-oxopentyl]amino]-benzeneacetic acid, cyclopentyl ester], the “RPS6KA1 (small molecules that inhibit RSK1 expression)” value is listed as −0.96.
For `CC(C(=O)Nc1cccc(/N=C/c2c(O)ccc3ccccc23)c1)c1ccccc1` (stereo not shown) [salermide], the “RPS6KA1 (small molecules that inhibit RSK1 expression)” value is listed as −0.98.
For `C/C=C/C/C=C/CCC(=O)[C@H]1O[C@H]1C(N)=O` [cerulenin, (2R,3S)-3-[(4E,7E)-1-Oxo-4,7-nonadien-1-yl]-2-oxiranecarboxamide], the “RPS6KA1 (small molecules that inhibit RSK1 expression)” value is given as −1.40.

Test system: RSK1 (S230p) phosphorylation site
Settings: MCF7 cell line; P100 dataset; cited from earlier work
For `CN[C@@H]1C[C@H]2O[C@@](C)([C@@H]1OC)n1c3ccccc3c3c4c(c5c6ccccc6n2c5c31)C(=O)NC4` [Staurosporine], the “modulation of RSK1-S230p phosphorylation” value is listed as “modulated”.

Same assay, conditions: PC3 cell line; P100 dataset; cited from earlier work
In the case of `O=C(c1ccc(C(=O)N2CCC(N3CCCC3)CC2)c(Nc2ccccc2)c1)N1CCC(N2CCCC2)CC1` [UNC-1215], the “modulation of RSK1-S230p phosphorylation” value is given as “modulated”.

Same assay, conditions: YAPC cell line; P100 dataset; cited from earlier work
For `O=C(CCCCCCC(=O)Nc1ccccc1)NO` [vorinostat], the “modulation of RSK1-S230p phosphorylation” value is listed as “modulated”.
In the case of `C=C1[C@@H](O)[C@@H]2O[C@]3(CC[C@H](/C=C/[C@@H](C)[C@@H]4CC(C)=C[C@@]5(O[C@H](C[C@@](C)(O)C(=O)O)CC[C@H]5O)O4)O3)CC[C@H]2O[C@@H]1[C@@H](O)C[C@H](C)[C@H]1O[C@@]2(CCCCO2)CC[C@H]1C` [okadaic acid], the “modulation of RSK1-S230p phosphorylation” value is given as “modulated”.
For `Cc1c[nH]c(-c2cnc(NCCNc3ccc(C#N)cn3)nc2-c2ccc(Cl)cc2Cl)n1` [CHIR-99021], the “modulation of RSK1-S230p phosphorylation” value is given as “modulated”.
